Key:
[1] = LNP size and polydispersity index by Dynamic Light Scattering (Malvern Zetasizer); type: physicochemical
[2] = mRNA encapsulation efficiency by Ribogreen RNA assay; type: physicochemical; details: for E.E. (encapsulation efficiency): N/P 10
Procedure: Lipid based nanoparticles are produced by microfluidic mixing of an mRNA solution in sodium acetate buffer (100 mM, pH4) and lipid solution in a 2:1 volume ratio at a speed of 9 mL/min using the NanoAssemblr Benchtop (Precision Nanosystems). The lipid solution contained a mixture of the ionizable lipid of interest, DSPC, DOPC or DOPE (Avanti), Cholesterol (Sigma) and DMG-PEG2000 (Sunbright GM-020, NOF corporation. The 4 lipids were mixed at 6 different molar ratios. LNPs were dialyzed against TBS (10000 times more TBS volume than LNP volume) using slide-a-lyzer dialysis cassettes (20K MWCO, 3 mL, ThermoFisher). Size, polydispersity and zeta potential were measured with a Zetasizer Nano (Malvern). mRNA encapsulation was measured by standard Ribogreen RNA assay (Invitrogen). […]
(§1) LNP formulations were prepared using a modified procedure of a method previously described for siRNA LNP synthesis. All formulations were prepared in a sterile manner with a N/P ratio of 10. All lipid components were dissolved in ethanol at molar ratios of 50:10:38.5:1.5 mol % (ionizable lipid/DSPC/Cholesterol/DMG-PEG2000). DSPC, Cholesterol and DMG-PEG2000 were purchased from Avanti Polar Lipids (Alabaster, Alabama, USA), while the Ionizable lipids are synthesized in-house. The final lipid concentration in ethanol was fixed at 10 mg/mL. E7 mRNA was dissolved in 100 mM acetate buffer (Sigma Aldrich, Saint-Louis, Missouri, USA) pH 4. The ethanol and aqueous phase were combined using a microfluidic mixer (NanoAssemblr® BenchTop (Precision Nanosystems, Vancouver, BC) in a 2:1 (aqueous:ethanol) ratio. Formulations were dialysed afterwards against 1× Sterile TBS pH 7.4 (Sigma Aldrich, Saint-Louis, Missouri, USA) using Slide-A-Lyzer® dialysis cassettes with a MWCO of 20.000 Da (Thermo Scientific, Massachusetts, USA) for 18 hours. Afterwards, the purified formulations were concentrated using Amicon ultra centrifugal filters (EMD Millipore, Massachusetts, USA). Finally, the exact concentration and E.E. % was determined through a Ribogreen Assay prior to final dilution with TBS (100 μg/mL E7 mRNA per formulation. All formulations were characterized for size and PDI using Dynamic Light Scattering Zetasizer Nano-ZS (Malvern Pananlytical Ltd., Malvern, UK) and stored afterwards at 4° C. The physico-chemical characteristics of each formulation can be found in Table 5.

E7-specific CD8 T cells = experiment: E7-specific CD8 T cell response after intramuscular E7 mRNA LNP vaccination (Example 5); type: in vivo, mice; details: Example 5, FIG. 13, in vitro stimulation with E7-derived peptide, vs MC-3
[3] = LNP size and polydispersity index by Dynamic Light Scattering (Malvern Zetasizer); type: physicochemical; details: N/P 10
Procedure: Lipid based nanoparticles are produced by microfluidic mixing of an mRNA solution in sodium acetate buffer (100 mM, pH4) and lipid solution in a 2:1 volume ratio at a speed of 9 mL/min using the NanoAssemblr Benchtop (Precision Nanosystems). The lipid solution contained a mixture of the ionizable lipid of interest, DSPC, DOPC or DOPE (Avanti), Cholesterol (Sigma) and DMG-PEG2000 (Sunbright GM-020, NOF corporation. The 4 lipids were mixed at 6 different molar ratios. LNPs were dialyzed against TBS (10000 times more TBS volume than LNP volume) using slide-a-lyzer dialysis cassettes (20K MWCO, 3 mL, ThermoFisher). Size, polydispersity and zeta potential were measured with a Zetasizer Nano (Malvern). mRNA encapsulation was measured by standard Ribogreen RNA assay (Invitrogen).
Size and Poly Dispersity Index were assessed by Dynamic Light Scattering (DLS) on a Malvern Zetasizer. MC-3 is the ionizable lipid used in Onpattro and is considered the state-of-the art.
as §1

[4] = Body weight after intratumoral LNP administration (CT26 model); type: in vivo, Balb/c mice; details: after intratumoral administration of 10 μg mRNA LNP
Procedure: Fluc mRNA expression in tumor and liver was assessed at 6 an 24 hours post injection. By injecting mice peritoneally with D-luciferin (Promega), bioluminescence can be measured through in vivo imaging (IVIS Spectrum System). Bioluminescence is generated through an oxidation reaction which occurs between the enzyme luciferase derived from the firefly mRNA encapsulated in the LNP and its substrate D-luciferin. The Living Image Software (PerkinElmer) was used to specify tumor and liver ‘region of interests (ROIs) after which the average radiance (p/s/cm^2/sr) was calculated within these ROIs. To monitor tolerability of different LNP types used, bodyweight at 6 and 24 hours post injection was compared to baseline bodyweight at day of randomization.
Balb/c mice were subcutaneously inoculated with CT26 tumor cells. When tumors reached a mean volume of 50-100 mm^3, tumors were injected with the respective mRNA LNPs (10 μg mRNA; 20 μl volume; TBS buffer) or with control buffer.

B16F10 tumors = experiment: Fluc mRNA expression in tumor after intratumoral LNP injection, in vivo bioluminescence; design: species or system C57/BL6 mice; details: B16F10 tumors (Example 2.5); intratumoral 10 μg mRNA; 6 hours and 24 hours post injection; vs MC-3 based benchmark LNP
Procedure: (§2) In case of CT26 tumor inoculation we used Balb/c mice. For B16F10 tumor inoculation C57/BL6 mice were used. To prepare for subcutaneous tumor inoculation, mice were anesthetized using 2.5% isoflurane and the injection site was shaved. The injection site is typically on the posterior/lateral aspect of the lower left flank. For inoculation purposes, cells need to be approximately 1 week in culture and between passage 3 and 5 after thawing. Cold tumor cell solution was injected subcutaneously at a dose of 0.5*10e6 cells/50 μl PBS. Tumor growth was measured every 2-3 days using the Caliper device. The following formula was used to calculate tumor size: (tumor width*tumor width*tumor length)/2. […] After injections, mice were always monitored for 5-10 minutes until fully awake without showing any sings of pain distress or complications.
(§3) Fluc mRNA expression in tumor and liver was assessed at 6 an 24 hours post injection. By injecting mice peritoneally with D-luciferin (Promega), bioluminescence can be measured through in vivo imaging (IVIS Spectrum System). […] The Living Image Software (PerkinElmer) was used to specify tumor and liver ‘region of interests (ROIs) after which the average radiance (p/s/cm^2/sr) was calculated within these ROIs. […]

liver [5] = experiment: Fluc mRNA off-target expression in liver after intratumoral LNP injection of CT26 tumors; type: in vivo, Balb/c mice; details: intratumoral 10 μg mRNA, 6 hours and 24 hours post injection, vs MC-3 based benchmark LNP
Procedure: as §2, §3

liver [6] = experiment: Fluc mRNA off-target expression in liver after intratumoral LNP injection of B16F10 tumors; type: in vivo, C57/BL6 mice; details: B16F10 tumors (Example 2.5); intratumoral 10 μg mRNA; 6 hours and 24 hours post injection; vs MC-3 based benchmark LNP
Procedure: as §2, §3

[7] = Body weight after intratumoral LNP administration (B16F10 model); type: in vivo, C57/BL6 mice; details: B16F10 model (Example 2.5); after intratumoral administration of 10 μg mRNA LNP
[8] = Table 6 (Example 4, HA mRNA), ionizable lipid/DSPC/Chol/DMG-PEG2000 50/10/38.5/1.5 mol %, N/P 10
[9] = Table 7, Ratio 2: 56.71/14.43/27.58/1.28 mol % ionizable lipid/DSPC/Chol/DMG-PEG2000, N/P 10
[10] = Table 6 (Example 4, HA mRNA), ionizable lipid/DSPC/Chol/DMG-PEG2000 50/10/38.5/1.5 mol %
[11] = Table 7, Ratio 1: 50/10/38.5/1.5 mol % ionizable lipid/DSPC (SS-EC: DOPE)/Chol/DMG-PEG2000
[12] = Table 7, Ratio 2: 56.71/14.43/27.58/1.28 mol % ionizable lipid/DSPC/Chol/DMG-PEG2000
[13] = Table 3, LNP ionizable lipid/phospholipid/cholesterol/DMG-PEG2000 about 50/10/38.5/1.5, DOPE, except MC-3 with DSPC, eGFP mRNA
[14] = Table 5, ionizable lipid/DSPC/Chol/DMG-PEG2000 50/10/38.5/1.5 mol %, E7 mRNA

PDI [1, 8]	size [1, 8] [nm]	PDI [1, 9]	size [1, 9] [nm]	E.E. (encapsulation efficiency) [2, 10] [%]	E.E. (encapsulation efficiency) [2, 11] [%]	E.E. (encapsulation efficiency) [2, 12] [%]	PDI [3, 11]	size [3, 11] [nm]	SMILES	further results
0.083	105.1	0.081	88	97	97	95	0.095	90	CCCCCCCCC(CCCCCC)C(=O)OCCN(CCOC(=O)C(CCCCCC)CCCCCCCC)C(=O)OCCSSCCOC(=O)NCCN1CCCCCC1 (stereo not drawn) [S-Ac7-DHDa]	T cell responses (IFNg+, IFNg+ TNFa+, IFNg+ Granzyme b+, IFNg+ CD107+ CD8 T cells in spleen) (E7-specific CD8 T cells): superior T cell responses compared to MC-3
0.077	93.62	0.106	97	98	97	96	0.094	109	CCCCCCCC/C=C\CCCCCCCC(=O)OCC(CNC(=O)OCCSSCCOC(=O)NCCN1CCCCCC1)OC(=O)CCCCCCC/C=C\CCCCCCCC (stereo not drawn) [S-Ac7-DOg]	body weight [4]: No weight loss; PDI [1, 13]: 0.21; size ([1]; Table 3, LNP ionizable lipid/phospholipid/cholesterol/DMG-PEG2000 about 50/10/38.5/1.5, DOPE, except MC-3 with DSPC, eGFP mRNA, in nm (unit assumed)): 87.46; Fluc expression levels in the tumor (in vivo bioluminescence) (B16F10 tumors): increased Fluc expression levels in the tumor compared to the MC-3 based benchmark LNP; % encap [2, 13]: 90%; E.E. (encapsulation efficiency) [2, 14]: 96%; off-target Fluc expression in the liver (liver [5]): strongly reduced off-target expression in the liver; off-target Fluc expression in the liver (liver [6]): strongly reduced off-target expression in the liver; PDI [3, 14]: 0.062; size [3, 14]: 97.51 nm; body weight [7]: No weight loss

Reference: patent US20240050574A1, “IONIZABLE LIPIDS” (eTheRNA immunotherapies NV, priority 2020, published 2024)
